# From patent publication US11976083B2, “Inhibitors of peptidylarginine deiminases” (Gilead Sciences, Inc., priority 2020, dated 2024)
# Biological target: T1, human PAD4 (Homo sapiens, UniProt Q9UM07)
# T1 construct: human PAD4 (NM_012387), A2-P663, was PCR amplified; His-SUMO (N, cleaved yes); made in house; host or cells: E. coli BL21(DE3)
# Experiment: In vitro PAD4 BAEE biochemical assay
# Conditions: BAEE substrate 3 mM, 5 nM PAD4, 2 mM calcium chloride; geometric mean of multiple experiments
# Method in brief: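 PAD4 5 nM, CaCl2 2 mM, BAEE 3 mM final; 50 mM MOPS pH 7.6, 50 mM NaCl, 0.05% Tween-20, 2 mM DTT. Cpd + enzyme 30 min 25 °C; substrate 2 h 25 °C; EDTA stop; OPA detection 1 h. IC50 4-parameter fit.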
# T1 sequence (Q9UM07 2-663): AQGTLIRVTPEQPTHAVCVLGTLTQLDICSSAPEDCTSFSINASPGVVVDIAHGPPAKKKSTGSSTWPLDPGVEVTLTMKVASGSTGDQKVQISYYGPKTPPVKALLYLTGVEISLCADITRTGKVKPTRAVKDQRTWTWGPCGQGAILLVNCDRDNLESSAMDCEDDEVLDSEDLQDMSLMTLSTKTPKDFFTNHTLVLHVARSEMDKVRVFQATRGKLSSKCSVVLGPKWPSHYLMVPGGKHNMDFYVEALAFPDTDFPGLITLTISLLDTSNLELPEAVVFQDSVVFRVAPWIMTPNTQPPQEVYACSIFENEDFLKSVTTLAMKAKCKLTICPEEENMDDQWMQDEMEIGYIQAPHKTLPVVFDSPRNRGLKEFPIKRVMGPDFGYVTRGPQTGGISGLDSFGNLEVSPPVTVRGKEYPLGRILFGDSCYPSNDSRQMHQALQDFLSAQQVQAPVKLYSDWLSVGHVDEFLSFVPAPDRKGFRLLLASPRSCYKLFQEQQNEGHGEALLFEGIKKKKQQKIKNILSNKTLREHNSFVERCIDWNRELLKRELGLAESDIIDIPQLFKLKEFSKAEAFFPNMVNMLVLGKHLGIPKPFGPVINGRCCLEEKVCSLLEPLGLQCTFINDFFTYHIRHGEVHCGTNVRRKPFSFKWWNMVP
row,IC50 [nM],SMILES
1,13,"COc1cc(C(=O)N2[C@H]3CC[C@@H]2[C@H](N)C3)cc2nc(-c3cc4ccc5nc4n3CCCCCC(=O)N3CCC[C@H]53)n(C)c12 [Example 128, (2~{R})-14-[5-[(1~{R},2~{R},4~{S})-2-amino-7-azabicyclo[2.2.1]heptane-7-carbonyl]-7-methoxy-1-methyl-benzimidazol-2-yl]-6,13,19-triazatetracyclo[11.5.2.0^{2,6}.0^{16,20}] icosa-1(19),14,16(20),17-tetraen-7-one]"
2,101,"COc1cc(C(=O)N2C[C@H](N)[C@@H]3CC[C@H]2C3)cc2nc(-c3cc4ccc5nc4n3CCCCCOC3(CC3)C(=O)N[C@@H]5C)n(C3CC3)c12 [Example 904, (11~{R})-17-[5-[(1~{S),4~{R}, 5~{R})-4-amino-2-azabicyclo [3.2.1]octane-2-carbonyl]-1-cyclopropyl-7-methoxy-benzimidazol-2-yl]-11-methyl-spiro[7-oxa-1,10,19-triazatricyclo[10.5.2.0^{15,18}]nonadeca-12(19), 13,15(18),16-tetraene-8,1′-cyclopropane]-9-one]"
3,87,"COc1cc(C(=O)N[C@H]2CNCC[C@@H]2F)cc2nc(-c3cc4ccc5nc4n3CCCCCC(C)(C)C(=O)N[C@@H]5C)n(C)c12 [Example 76, ~{N}-[(3~{S),4~{S})-4-fluoro-3-piperidyl]-7-methoxy-1-methyl-2-[(10~{R})-7,7,10-trimethyl-8-oxo-1,9,18-triazatricyclo[9.5.2.0^{14,17}]octadeca-11(18),12,14(17),15-tetraen-16-yl]benzimidazole-5-carboxamide]"
4,19,"COc1cc(C(=O)N2CCC[C@@H](N)[C@H]2C)cc2nc(-c3cc4ccc5nc4n3CCCCC[C@]3(F)C[C@H]3C(=O)N[C@@H]5C)n(C)c12 [Example 706, (2~{R},5~{S},7~{S})-14-[5-[(2~{R},3~{R})-3-amino-2-methyl-piperidine-1-carbonyl]-7-methoxy-1-methyl-benzimidazol-2-yl]-7-fluoro-2-methyl-3,13,19-triazatetracyclo[11.5.2.0^ {5,7}.0^{16,20}]icosa-1(19),14,16(20),17-tetraen-4-one]"
5,28,"C[C@H]1NC(=O)[C@@H]2C[C@H]2CCCC(F)(F)Cn2c(-c3nc4cc(C(=O)N5C[C@H](N)[C@@H]6CC[C@H]5C6)cc(F)c4n3[C@H]3C[C@H]3F)cc3ccc1nc32 [Example 468, (2~{R},5~{R},7~{R})-14-[5-[(1~{S},4~{R},5~{R})-4-amino-2-azabicyclo[3.2.1]octane-2-carbonyl]-7-fluoro-1-[(1~{S},2~{R})-2-fluorocyclopropyl]benzimidazol-2-yl]-11,11-difluoro-2-methyl-3,13,19-triazatetracyclo[11.5.2.0^{5,7}.0^{16,20}] icosa-1(19),14,16(20),17-tetraen-4-one]"
6,39,"COc1cc(C(=O)N2[C@H]3CC[C@@H]2[C@H](N)C3)cc2nc(-c3cc4ccc5nc4n3CCCCCCCC(=O)N[C@@H]5C(F)(F)F)n(C)c12 [Example 258, (11~{S})-17-[5-[(1~{R},2~{R},4~{S})-2-amino-7-azabicyclo[2.2.1]heptane-7-carbonyl]-7-methoxy-1-methyl-benzimidazol-2-yl]-11-(trifluoromethyl)-1,10,19-triazatricyclo[10.5.2.0^{15,18}]nonadeca-12(19),13,15(18),16-tetraen-9-one]"
7,83,"COc1cc(C(=O)N2[C@H]3CC[C@@H]2[C@H](N)C3)cc2nc(-c3cc4ccc5nc4n3CCCCCCC(=O)Nc3ccccc3-5)n(C)c12 [Example 87, 17-[5-[(1~{R},2~{R},4~{S})-2-amino-7-azabicyclo[2.2.1]heptane-7-carbonyl]-7-methoxy-1-methyl-benzimidazol-2-yl]-8,16,22-triazatetracyclo[14.5.2.0^{2,7}.0^{19,23}] tricosa-1(22),2,4,6,17,19(23),20-heptaen-9-one]"
8,66,"COc1cc(C(=O)N[C@H]2CNCC[C@@H]2F)cc2nc(-c3cc4ccc5nc4n3CCCCCc3nn(C)nc3C(=O)N[C@@H]5C)n(C)c12 [Example 185, 2-[(2~{R})-2,7-dimethyl-4-oxo-3,6,7,8,15,21-hexazatetracyclo[13.5.2.0^{5,9}.0^{18,22}]docosa-1(21),5,8,16,18(22),19-hexaen-16-yl]-~{N}-[(3~{S),4~{S})-4-fluoro-3-piperidyl]-7-methoxy-1-methyl-benzimidazole-5-carboxamide]"
9,231,"COc1cc(C(=O)N2CC[C@@H](OC)[C@@H](N)C2)cc2nc(-c3cc4ccc5nc4n3CCCCCC(C)(C)C(=O)N[C@@H]5C)n(C)c12 [Example 61, (10~{R})-16-[5-[(3~{S},4~{R})-3-amino-4-methoxy-piperidine-1-carbonyl]-7-methoxy-1-methyl-benzimidazol-2-yl]-7,7,10-trimethyl-1,9,18-triazatricyclo[9.5.2.0^{14,17}]octadeca-11(18),12,14(17),15-tetraen-8-one]"
10,214,"COc1cc(C(=O)N2CC[C@@H](OC(F)F)[C@@H](N)C2)cc2nc(-c3cc4ccc5nc4n3CCCCCc3cc4ccccc4nc3C(=O)N[C@@H]5C)n(C)c12 [Example 732, (2~{R})-21-[5-[(3~{S},4~{R})-3-amino-4-(difluoromethoxy)piperidine-1-carbonyl]-7-methoxy-1-methyl-benzimidazol-2-yl]-2-methyl-3,6,20,26-tetrazapentacyclo[18.5.2.0^ {5,14}.0^{7,12}.0^{23,27}] heptacosa-1(26),5(14),6,8,10, 12,21,23(27),24-nonaen-4-one]"
11,95,"CO[C@@H]1CCN(C(=O)c2cc(OC(F)F)c3c(c2)nc(-c2cc4ccc5nc4n2CCCCC[C@@H]2C[C@H]2C(=O)N[C@@H]5C)n3C)C[C@@H]1N [Example 511, (2~{R},5~{R}, 7~{R})-14-[5-[(3~{S},4~{R})-3-amino-4-methoxy-piperidine-1-carbonyl]-7-(difluoromethoxy)-1-methyl-benzimidazol-2-yl]-2-methyl-3,13,19-triazatetracyclo[11.5.2.0^ {5,7}.0^{16,20}] icosa-1(19),14,16(20), 17-tetraen-4-one]"
12,75,"COc1cc(C(=O)N[C@H]2CNCC[C@@H]2F)cc2nc(-c3cc4ccc5nc4n3CCCCCc3c(cnn3C)C(=O)N[C@@H]5C)n(C)c12 [Example 180, 2-[(2~{R})-2,8-dimethyl-4-oxo-3,7,8,15,21-pentazatetracyclo[13.5.2.0^{5,9}.0^{18,22}]docosa-1(21),5(9),6,16,18(22),19-hexaen-16-yl]-~{N}-[(3~{S},4~{S})-4-fluoro-3-piperidyl]-7-methoxy-1-methyl-benzimidazole-5-carboxamide]"
13,59,"C[C@H]1NC(=O)CCOC[C@@H]2C[C@@H]2Cn2c(-c3nc4cc(C(=O)N[C@H]5CNCC[C@@H]5F)c(F)cc4n3C3CC3)cc3ccc1nc32 [Example 622, 1-cyclopropyl-6-fluoro-~ {N}-[(3~{S},4~{S})-4-fluoro-3-piperidyl]-2-[(3~{S},5~{R},12~{R})-12-methyl-10-oxo-7-oxa-1,11,20-triazatetracyclo[11.5.2.0^ {3,5}.0^{16,19}]icosa-13(20),14,16(19), 17-tetraen-18-yl] benzimidazole-5-carboxamide]"
